According to patent US20180186815A1, “PHARMACEUTICAL COMPOSITIONS, METHODS FOR THEIR PREPARATION AND THEIR USE IN THE TREATMENT OF CANCER” (Urifer Ltd., priority 2016, published 2018):
Where two headings read alike, the source gives them in different places.

Legend:
Assay type in all cases: cell-based
[1] = tested on: colon cancer cell line HCT 116; assay: Growth profile / viability of HCT116 colon cancer cells, XTT test; details: Homo sapiens, HCT-116, 96 h, Control DMSO = 100%, read-out: percentage of viable cells, HCT116
Procedure: (§1) The effect of the compounds Z522-XXX on the growth profile of cancer cells which express Fer was tested. The cells that were tested were: the colon cancer cell lines HT29 and HCT 116, RKO. The effect of each of the compounds on FS cells, a non malingnant fibroblastic cell line, was also studied.
(§2) Generally, cells were seeded in 96 wells microplates and were left to grow untreated overnight. Each of the compounds was dissolved in DMSO and was then added to each well in a final concentration of 5 μM. The concentration of DMSO in each well was 0.4% v/v. Untreated cells and cells subjected to 0.4% DMSO alone, served as controls. The percentage of viable cells in each well was determined 96 hours after compounds addition, using the XTT test (Berridge, M. V. et al, 2005).

[2] = tested on: colon cancer cell line HT29; assay: Growth profile / viability of HT29 colon cancer cells, XTT test; details: Homo sapiens, HT-29, 96 h, Control DMSO = 100%, read-out: percentage of viable cells, HT29
Procedure: as §1, §2

[3] = tested on: colon cancer cell line RKO; assay: Growth profile / viability of RKO colon cancer cells, XTT test; details: 96 h, Control DMSO = 100%, read-out: percentage of viable cells, RKO
Procedure: as §1, §2

[4] = Viability of FS non malignant fibroblastic cells, XTT test; details: FS cells (non-malignant fibroblastic cell line), Control DMSO = 100%, read-out: percentage of viable cells, FS
Procedure: as §1, §2

| SMILES | viability at 5 µM ([1]; first HCT116 column) | viability at 5 µM ([1]; second HCT116 column) | viability at 5 µM ([2]; first HT29 column) | viability at 5 µM ([2]; second HT29 column) | viability at 5 µM ([3]; first RKO column) | viability at 5 µM ([3]; second RKO column) | viability at 96 h, 5 µM ([4]; first FS column) | viability at 96 h, 5 µM ([4]; second FS column) |
| --- | --- | --- | --- | --- | --- | --- | --- | --- |
| CN1CCN(C(=O)C2CCN(c3nn4cc(-c5ccc(-n6cccn6)cc5)nc4s3)CC2)CC1 [Compound Z522-0167, 2-{4-[(4-methyl-piperazin-1-yl)-carbonyl]piperidin-1-yl}-6-[4-(1H-pyrazol-1-yl)-phenyl]imidazo[2,1-b][1,3,4]-thiadiazole] | 94% | 83% | 87% | 86% | 36% | 47% | 96% | 92% |
| CC1CCN(c2ccc(-c3cn4nc(N5CCC(C(=O)N6CCN(C)CC6)CC5)sc4n3)cc2)CC1 [Compound Z522-0170, 2-{4-[(4-methyl-piperazin-1-yl)carbonyl]piperidin-1-yl}-6-[4-(4-methylpiperidin-1-yl)phenyl]-imidazo[2,1-b]-[1,3,4]thiadiazole] | 2% | 3% | 5% | 2% | 3% | 4% | 90% | 68% |
| CC(C)N1CCN(c2ccc(-c3cn4nc(N5CCC(C(=O)N6CCN(C)CC6)CC5)sc4n3)cc2)CC1 [Compound Z522-0174, 6-[4-(4-isopropyl-piperazin-1-yl)-phenyl]-2-{4-[(4-methylpiperazin-1-yl)carbonyl]-piperidin-1-yl}-imidazo[2,1-b]-[1,3,4]thiadiazole] | 105% | 124% | 77% | 78% | 93% | 97% | 117% | 113% |
| CN1CCN(C(=O)C2CCN(c3nn4cc(-c5ccc(N6CCOCC6)cc5)nc4s3)CC2)CC1 [Compound Z522-0176, 2-{4-[(4-methyl-piperazin-1-yl)-carbonyl]piperidin-1-yl}-6-(4-morpholin-4-yl-phenyl)imidazo[2,1-b][1,3,4]-thiadiazole] | 109% | 116% | 112% | 112% | 92% | 89% | 103% | 100% |
| CN1CCN(C(=O)C2CCN(c3nn4cc(-c5ccc(N(C)CCO)cc5)nc4s3)CC2)CC1 [Compound Z522-0177, 2-{methyl[4-(2-{4-[(4-methyl-piperazin-1-yl)-carbonyl]piperidin-1-yl}imidazo-[2,1-b][1,3,4]-thiadiazol-6-yl)-phenyl]amino} ethanol] | 107% | 104% | 116% | 121% | 97% | 96% | 120% | 116% |
| Cc1c(-c2ccc(N(C)C)cc2)nc2sc(N3CCC(C(=O)N4CCN(C)CC4)CC3)nn12 [Compound Z522-0179, N,N-dimethyl-4-(5-methyl-2-{4-[(4-methyl-piperazin-1-yl)carbonyl]piperidin-1-yl}imidazo-[2,1-b][1,3,4]-thiadiazol-6-yl)-aniline] | 101% | 108% | 103% | 100% | 109% | 103% | 91% | 117% |
| Cc1c(-c2ccc(N3CCN(C)CC3)cc2)nc2sc(N3CCC(C(=O)N4CCN(C)CC4)CC3)nn12 [Compound Z522-0180, 5-methyl-2-{4-[(4-methyl-piperazin-1-yl)carbonyl]piperidin-1-yl}-6-[4-(4-methylpiperazin-1-yl)phenyl]-imidazo[2,1-b]-[1,3,4]thiadiazole] | 94% | 105% | 89% | 90% | 95% | 103% | 101% | 101% |
| Cc1c(-c2ccc(N3CCSCC3)cc2)nc2sc(N3CCC(C(=O)N4CCN(C)CC4)CC3)nn12 [Compound Z522-0184, 5-methyl-2-{4-[(4-methyl-piperazin-1-yl)carbonyl]piperidin-1-yl}-6-(4-thiomorpholin-4-ylphenyl)imidazo [2,1-b][1,3,4]-thiadiazole] | 77% | 87% | 50% | 44% | 41% | 53% | 71% | 86% |
| Cc1c(-c2ccc(N3CCCCCC3)cc2)nc2sc(N3CCC(C(=O)N4CCN(C)CC4)CC3)nn12 [Compound Z522-0185, 6-(4-azepan-1-yl-phenyl)-5-methyl-2-{4-[(4-methyl-piperazin-1-yl)carbonyl]piperidin-1-yl}imidazo-[2,1-b][1,3,4]-thiadiazole] | 40% | 42% | 19% | 11% | 14% | 15% | 92% | 94% |
| Cc1c(-c2ccc(N3CCCC(C)C3)cc2)nc2sc(N3CCC(C(=O)N4CCN(C)CC4)CC3)nn12 (stereo not drawn) [Compound Z522-0186, 5-methyl-2-{4-[(4-methyl-piperazin-1-yl)carbonyl]piperidin-1-yl}-6-[4-(3-methylpiperidin-l-yl)phenyl]-imidazo[2,1-b]-[1,3,4]thiadiazole] | 23% | 26% | 7% | 7% | 8% | 11% | 82% | 94% |
| Cc1c(-c2ccc(-n3cccn3)cc2)nc2sc(N3CCC(C(=O)N4CCN(C)CC4)CC3)nn12 [Compound Z522-0187, 5-methyl-2-{4-[(4-methyl-piperazin-1-yl)-carbonyl]piperidin-1-yl}-6-[4-(1H-pyrazol-1-yl)-phenyl]imidazo[2,1-b][1,3,4]-thiadiazole] | 110% | 97% | 99% | 111% | 56% | 56% | 92% | 94% |
| Cc1c(-c2ccc(N3CCC(C)CC3)cc2)nc2sc(N3CCC(C(=O)N4CCN(C)CC4)CC3)nn12 [Compound Z522-0190, 5-methyl-2-{4-[(4-methyl-piperazin-1-yl)-carbonyl]piperidin-1-yl}-6-[4-(4-methylpiperidin-1-yl)phenyl]-imidazo[2,1-b]-[1,3,4]thiadiazole] | 45% | 51% | 7% | 6% | 9% | 9% | 86% | 101% |
| Cc1c(-c2ccc(N3CCCCCCC3)cc2)nc2sc(N3CCC(C(=O)N4CCN(C)CC4)CC3)nn12 [Compound Z522-0191, 6-(4-azocan-1-ylphenyl)-5-methyl-2-{4-[(4-methylpiperazin-1-yl)carbonyl]-piperidin-1-yl}-imidazo[2,1-b]-[1,3,4]thiadiazole] | 39% | 41% | 12% | 10% | 23% | 35% | 103% | 101% |
| Cc1c(-c2ccc(N3CCCC3)cc2)nc2sc(N3CCC(C(=O)N4CCN(C)CC4)CC3)nn12 [Compound Z522-0195, 5-methyl-2-{4-[(4-methyl-piperazin-1-yl)carbonyl]piperidin-1-yl}-6-(4-pyrrolidin-1-ylphenyl)imidazo [2,1-b][1,3,4]-thiadiazole] | 111% | 113% | 91% | 82% | 80% | 75% | 109% | 119% |
| Cc1c(-c2ccc(N3CCOCC3)cc2)nc2sc(N3CCC(C(=O)N4CCN(C)CC4)CC3)nn12 [Compound Z522-0196, 5-methyl-2-{4-[(4-methyl-piperazin-1-yl)-carbonyl]piperidin-1-yl}-6-(4-morpholin-4-ylphenyl)imidazo [2,1-b][1,3,4]-thiadiazole] | 105% | 104% | 104% | 101% | 88% | 93% | 86% | 94% |
